Like-named read-outs stand apart in the source and are kept apart here.
Columns and labels:
[1] = system: hormone-independent breast and colon cancer cell lines; experiment: growth inhibition of hormone-independent breast and colon cancer lines; format: cell-based, human; details: for growth inhibitory effect: alone; for enhancement of the effect of the site-selective compounds: in combination with the site-selective compounds
Description: (§1) All breast cancer cell lines were grown in IMEM supplemented with 10% fetal bovine serum, 20 mM HEPES, penicillin-streptomycin, and extra glutamine. Colon carcinoma cell lines were grown in EMEM supplemented with 10% FBS, EMEM, NEAA, HEPES 20 mM, extra glutamine, and penicillin-streptomycin. The cells were grown at 37° C. in humidified incubators in an atmosphere of 5% CO2.
(§2) For cell growth experiments, 2-3×10^5 cells/60 mm dish were seeded, and 24 hours later (Day 0), the medium was removed, and fresh medium and the additives were added then and every 48 hours thereafter The compounds of the present invention were added using 100× concentrated stock solutions. At desired times, cell counts in duplicate were performed on a Coulter counter after harvesting the cells with gentle trypsinization.

[2] = system: leukemic cell lines (HL-60, K-562, myc-K562, Molt-4); experiment: growth inhibition and viability of leukemic cell lines; format: cell-based, human; details: for growth inhibitory effect: alone; for enhancement of the analog effect: in combination with the analogue
[3] = system: cultured human fibroblasts; details: cited from earlier work
[4] = system: cells; experiment: growth inhibition by 8-Cl-AMP; format: cell-based; details: as high as 100 microM
[5] = system: MCF-7 ras breast cancer cell line; experiment: synergistic growth inhibition by C-6 and C-8 analogue combination; format: cell-based; details: Homo sapiens, MCF7, alone, read-out: percentage growth inhibition of analogue added alone
Description: as §1, §2
Synergism quotient was defined as the net growth inhibitory effect of the analogue combination divided by the sum of the net analogue effects on growth inhibition A quotient of >1 indicates a synergistic effect, while a quotient of <1 indicates an antagonistic effect.
Synergism of growth inhibition was determined by treatment of
cells with C-6 analogues and C-8 analogues alone and in combination at
Day 0 and Day 2 and counting the cell number at Day 4

[6] = system: breast and colon cancer cells; experiment: effect on cell morphology; format: cell-based, human
Description: The photographs were taken on Day 4, ×160.
Furthermore, the synergistic growth inhibitory effect of C-6 and C-8 analogue combinations was also reflected in the change in the cell morphology.

[7] = system: R^II; details: cited from earlier work
[8] = system: R^I receptor; details: cited from earlier work
[9] = system: breast and colon cancer cell lines; experiment: cell cycle progression of breast and colon cancer cell lines; format: cell-based, human; details: vs untreated control cells
Description: DNA histograms were generated on FACS II by using the DNA intercalating dye propidium iodide as described by Braylan et al. (Cytometry 2: 337-343, 1982). The percentage of cells in each cycle phase was calculated by using a PDP-11/34 computer and software as described by Neckers et al. (Mol. Cell. Biol. 6: 4244-4250, 1986).
A determination was made whether the reduced cell proliferation observed in the cancer cell lines after treatment with the compounds of the present invention is due to a specific block in one phase of the cell cycle.

[10] = system: R^I cAMP receptor protein (MDA-MB-231); experiment: photoaffinity labelling of R^I cAMP receptor protein, MDA-MB-231; format: cell-based, human; details: 10 microM, 3 days; control 1.0
Description: (§3) M is marker proteins of known molecular weight.
(§4) The incubations were carried out at 23° C. for 60 minutes in 96-well immunoplates. The reaction mixtures were then irradiated for 30 seconds at 254 nm, placing a Mineralite UVS-11 hand lamp directly onto the plate. The samples were mixed with 25 microliters of 3× sample buffer (3% SDS, 15% beta-mercaptoethanol, 30 mM Tris, 30% glycerol, 1% bromophenol blue saturated solution), boiled for 3 minutes, and centrifuged at 700×g for five minutes. The samples containing 50-100 micrograms of protein were subjected to 0.05% SDS-12% PAGE. The gels were fixed, dried, and exposed to X-ray films overnight. The protein concentrations were determined by the method of Lowry et al., (J. Biol. Chem. 193: 265-275, 1951) with bovine serum albumin as standard.
(§5) The levels of the receptor proteins are expressed relative to the R^I level in the untreated control cells of MDA-MB-231 and LS-174T, which are each set equal to 1.0 O.D.; the scale was expanded to differentiate the lower intensity bands.

[11] = system: R^II cAMP receptor protein (MDA-MB-231); experiment: photoaffinity labelling of R^II cAMP receptor protein, MDA-MB-231; format: cell-based, human; details: 10 microM, 3 days; relative to control R^I
Description: as §3, §4, §5

[12] = system: R^I cAMP receptor protein (LS-174T); experiment: photoaffinity labelling of R^I cAMP receptor protein, LS-174T; format: cell-based, human; details: 10 microM, 3 days; control 1.0
Description: as §3, §4, §5

[13] = system: R^II cAMP receptor protein (LS-174T); experiment: photoaffinity labelling of R^II cAMP receptor protein, LS-174T; format: cell-based, human; details: 10 microM, 3 days; relative to control R^I
Description: as §3, §4, §5

[14] = system: MDA-MB-231; experiment: growth of MDA-MB-231 cells; format: cell-based; details: Homo sapiens, MDA-MB-231, 72 h; 10 microM, 3 days
Description: as §3, §1, §2

[15] = system: LS-174T; experiment: growth of LS-174T cells; format: cell-based; details: Homo sapiens, LS174T, 72 h; 10 microM, 3 days
Description: as §3, §1, §2

[16] = system: R^I and R^II cAMP receptor proteins in breast (MDA-MB-231) and colon (LS-174T) cancer cells; experiment: R^I and R^II cAMP receptor protein levels in breast and colon cancer lines (FIG. 6); format: cell-based, human
Description: as §3, §4

[17] = system: hormone-dependent breast cancer lines; details: millimolar concentrations; previously reported; cited from earlier work
[18] = system: breast (MCF-7) and (LS-174T) colon cancer cell lines; experiment: growth inhibition of breast (MCF-7) and colon (LS-174T) cancer cell lines; format: cell-based, human; details: 50 micromolar
[19] = system: disseminated neuroblastomas; details: in a combined drug regimen; cited from earlier work
[20] = system: YAC lymphoma cell; details: mouse, in vivo; cited from earlier work

For CC(C)Cn1c(=O)n(C)c(=O)c2[nH]cnc21 [1-methyl-3-isobutylxanthine], the growth inhibitory effect ([1]; 0.5 mM) was “little or no growth inhibitory effect”, the “enhancement of the effect of the site-selective compounds” value [1] was “could not enhance the effect” and the growth inhibitory effect ([2]; 0.5 mmol/L) was “little or no growth inhibitory effect”. The “enhancement of the analog effect” value [2] was “could not enhance the analog effect”, the DNA synthesis ([3]; added during first eight hours after serum addition) was “subsequent DNA synthesis was not delayed” and the DNA synthesis ([3]; added more than eight hours after serum addition) was “inhibitory”.

In the case of Nc1ncnc2c1nc(Cl)n2[C@@H]1O[C@H](COP(=O)(O)O)[C@@H](O)[C@H]1O [8-Cl-AMP], the growth inhibition [4] is reported as “no appreciable growth inhibition”.

In the case of Nc1ncnc2c1nc(Br)n2[C@@H]1O[C@@H]2COP(=O)(O)O[C@H]2[C@H]1O [8-bromo-cAMP], the “potency relative to 8-Cl-cAMP, times less potent” value (shortened to “potency relative to 8-Cl-cAMP”) [2] is reported as 5 to 20 times.

In the case of CNc1nc2c(N)ncnc2n1[C@@H]1O[C@@H]2COP(=O)(O)O[C@H]2[C@H]1O [8-methylamino-cAMP], the inhibition at 1 µM [5] is reported as 10% and the “potency relative to 8-Cl-cAMP” value [2] is reported as 5 to 20 times.

For CSc1nc2c(N)ncnc2n1[C@@H]1O[C@@H]2COP(=O)(O)O[C@H]2[C@H]1O [8-methylthio-cAMP], the inhibition at 1 µM [5] was 15%, the morphological change ([6]; 100 microM, three to four days) was “induced the morphological change” and the “potency relative to 8-Cl-cAMP” value [2] was 5 to 20 times.

For Nc1ncnc2c1nc(N1CCCCC1)n2[C@@H]1O[C@@H]2COP(=O)(O)O[C@H]2[C@H]1O [8-piperidino-cAMP, reference compound], the “site selectivity of binding, R^II” value [7] is listed as “selectively binds to site 1” and the “site selectivity of binding, R^I” value [8] is listed as “binds to site 2”.

With O=C(Nc1ncnc2c1ncn2[C@@H]1O[C@@H]2COP(=O)(O)O[C@H]2[C@H]1O)c1ccccc1 [N^6 -benzoyl-cAMP] the inhibition at 0.5 µM [5] was 10%.

In the case of O=P1(O)OC[C@H]2O[C@@H](n3cnc4c(NCc5ccccc5)ncnc43)[C@H](O)[C@@H]2O1 [N^6 -benzyl-cAMP], the inhibition at 0.5 µM [5] is reported as 15%, the morphological change ([6]; 0.5 microM alone, four days) is reported as “did not induce a change in the cell morphology” and the morphological change ([6]; 50 microM, three to four days) is reported as “induced the morphological change”. The “fractions of cells in G1, S and G2/M phases, in words” value [9] was “not appreciably different”, the “R^I relative level” value [10] was 0.25 ± 0.03 and the “R^II relative level” value [11] was 0.07 ± 0.01. The “R^I relative level” value [12] was 0.20 ± 0.02, the “R^II relative level” value [13] was 0.25 ± 0.02 and the activity at 10 µM [14] was 55%. The activity at 10 µM [15] was 35%, the “increase in the ratio of R^II to R^I” value ([16]; densitometry) was “two- to three-fold increase” and the “48,000 R^I receptor protein, in words” value ([16]; three days, 10 microM) was “concomitant decrease”. For the same molecule, the “52,000 MW (R^II) receptor protein, in words” value ([16]; three days, 10 microM) was “increased appreciably”.

For CCCC(=O)Nc1ncnc2c1ncn2[C@@H]1O[C@@H]2COP(=O)(O)O[C@H]2[C@H]1O [N^6 -butyryl cAMP], the “growth inhibition, hormone-dependent breast cancer lines” value [17] is listed as “growth inhibition only in the hormone-dependent breast cancer lines”.

In the case of O=P1(O)OC[C@H]2O[C@@H](n3c(Sc4ccc(Cl)cc4)nc4c(Nc5ccccc5)ncnc43)[C@H](O)[C@@H]2O1 [N^6-phenyl-8-p-chlorophenylthio-cAMP], the “growth inhibition, in words” value [18] is reported as “most potent growth inhibition among the C-6,-8 disubstituted analogues”.

For COc1ccc(Cc2nccc3cc(OC)c(OC)cc23)cc1OC [papaverine], the clinical result [19] is given as “promising results”.

For Cn1c(=O)c2[nH]cnc2n(C)c1=O [theophylline], the growth inhibitory effect ([1]; 0.1 mM) was “little or no growth inhibitory effect”, the “enhancement of the effect of the site-selective compounds” value [1] was “could not enhance the effect” and the growth inhibitory effect ([2]; 0.1 mmol/L) was “little or no growth inhibitory effect”. The “enhancement of the analog effect” value [2] was “could not enhance the analog effect”.

For cholera toxin, the “inhibition of YAC lymphoma cell proliferation” value [20] is listed as “almost complete inhibition”.
